# According to patent US9718790B2, “Triazine derivative and pharmaceutical composition having an analgesic activity comprising the same” (SHIONOGI & CO., LTD., priority 2010, dated 2017):
# Molecular target: human P2X3 receptor (Homo sapiens (Human), UniProt P56373)
# Assay: Evaluation of human P2X3 receptor inhibitory activity (Fluo-3 calcium fluorescence, FDSS 3000, ATP stimulation);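 also: stimulus was 50 nM ATP with fluorescence followed for 3 min, and the response per well was peak post-ATP fluorescence divided by the reading at measurement start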
# Format: cell-based
# Settings: C6BU-1 cells stably expressing human P2X3 receptor
# Sequence of human P2X3 receptor (P56373 whole entry): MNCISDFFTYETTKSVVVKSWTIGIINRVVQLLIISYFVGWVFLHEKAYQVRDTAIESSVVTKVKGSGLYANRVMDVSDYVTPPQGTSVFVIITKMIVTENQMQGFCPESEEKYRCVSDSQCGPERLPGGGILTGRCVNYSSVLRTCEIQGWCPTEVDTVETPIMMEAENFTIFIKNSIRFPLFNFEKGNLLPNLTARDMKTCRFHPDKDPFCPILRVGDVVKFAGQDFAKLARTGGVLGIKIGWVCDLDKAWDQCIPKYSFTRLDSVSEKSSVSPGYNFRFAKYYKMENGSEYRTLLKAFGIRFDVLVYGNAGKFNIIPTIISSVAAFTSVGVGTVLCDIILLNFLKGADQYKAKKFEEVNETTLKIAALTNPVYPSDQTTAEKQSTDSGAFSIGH
row,Structure (SMILES),IC50 [nM]
1,Cc1cc(/N=c2\[nH]c(=O)n(Cc3cccnc3OCCOC3CCCCO3)c(=O)n2Cc2ccc(Cl)cc2)ccc1OC(C)C (centres unmarked) [Compound I-0714],30
2,Cc1cc(Oc2ccc(/N=c3\[nH]c(=O)n(CCCC(=O)O)c(=O)n3Cc3ccc(Cl)cc3)cc2)ccn1 [Compound I-1404],24
3,CC(C)Oc1ccc(/N=c2\[nH]c(=O)n(CC(=O)NC(CO)CO)c(=O)n2Cc2ccc(Cl)cc2)cc1Cl [Compound I-0665],4
4,CC(C)Oc1ccc(/N=c2\[nH]c(OCC(=O)N(C)CCO)nc(=O)n2Cc2ccc(Cl)cc2)cc1F [Compound I-0586],611
5,COC(=O)c1ccc(Oc2ccc(/N=c3\[nH]c(=O)n(C)c(=O)n3Cc3ccc(Cl)cc3)cc2)cc1 [Compound I-2058],7
6,Cc1cc(/N=c2\[nH]c(=O)n(-c3ccc(C(=O)O)cc3)c(=O)n2Cc2ccc(Cl)cc2)ccc1OC(C)C [Compound I-0762],82
7,CCOC(=O)CCn1c(=O)[nH]/c(=N\c2ccc(OC3CCC3)cc2)n(Cc2ccc(Cl)cc2)c1=O [Compound I-1283],4
8,CCOC(=O)CCn1c(=O)[nH]/c(=N\c2ccc(Oc3cccnc3)cc2)n(Cc2ccc(C)cc2)c1=O [Compound I-1229],4
9,O=C(O)CCn1c(=O)[nH]/c(=N\c2ccc(Oc3ccncc3)cc2)n(Cc2ccc(Cl)cc2)c1=O [Compound I-1207],15
10,COCc1cc(/N=c2\[nH]c(=O)n(CCC(=O)O)c(=O)n2Cc2ccc(C)cc2)ccc1OC(C)C [Compound I-1428],926
11,Cc1nc2ccc(/N=c3\[nH]c(=O)n(CCNCCO)c(=O)n3Cc3ccc(Cl)cc3)cc2s1 [Compound I-2163],54
12,CCCCOc1ccc(/N=c2\[nH]c(=O)n(C[C@H](C)C(=O)OC)c(=O)n2Cc2ccc(Cl)cc2)cc1 [Compound I-0814],17
13,Cc1ccc(Cn2c(=O)n(C[C@H](C)C(=O)O)c(=O)[nH]/c2=N\c2ccc(OC3CCC3)cc2)cc1 [Compound I-1220],13
14,Cn1c(=O)[nH]/c(=N\c2ccc(Oc3cccc(C(=O)O)c3)cc2)n(Cc2ccc(Cl)cc2)c1=O [Compound I-2064],40
15,CNC(=O)CCn1c(=O)[nH]/c(=N\c2ccc3[nH]c(C)c(C)c3c2)n(Cc2ccc(Cl)cc2)c1=O [Compound I-1967],8
16,CCCOc1ccc(/N=c2\[nH]c(=O)n([C@H](C)[C@H](C)C(=O)O)c(=O)n2Cc2ccc(C)cc2)cc1 [Compound I-1340],57
17,Cc1ccc(/N=c2\[nH]c(=O)n(C[C@H](C)C(=O)O)c(=O)n2Cc2ccc(Cl)cc2)cc1Cl [Compound I-0696],129

# Same assay, conditions: C6BU-1 cells stably expressing human P2X3 receptor, Fluo-3 fluorescence, FDSS 3000
row,Structure (SMILES),IC50 [nM]
1,CCOC(=O)CCn1c(=O)[nH]/c(=N\c2ccc(O[C@H](C)C(F)(F)F)cc2)n(Cc2ccc(C)cc2)c1=O [Compound I-1021],7
2,CC[C@H](C)COc1ccc(/N=c2\[nH]c(=O)n(C[C@H](C)C(=O)O)c(=O)n2Cc2ccc(C)cc2)cc1 [Compound I-1059],123
3,CCCOc1ccc(/N=c2\[nH]c(=O)n(C[C@@H](CC)C(=O)O)c(=O)n2Cc2ccc(Cl)cc2)cc1 [Compound I-1039],83
4,C[C@@H](Cn1c(=O)[nH]/c(=N\c2ccc(CC3CCCC3)cc2)n(Cc2ccc(Cl)cc2)c1=O)C(=O)O [Compound I-1101],53
5,CCCCCOc1ccc(/N=c2\[nH]c(=O)n(CCC(=O)O)c(=O)n2Cc2ccc(C)cc2)cc1 [Compound I-1072],252
6,C[C@@H](Cn1c(=O)[nH]/c(=N\c2ccc(OC(F)F)cc2)n(Cc2ccc(Cl)cc2)c1=O)C(=O)O [Compound I-1162],179
7,CC(C)Oc1ccc(Nc2nc(=O)n(C(C)C)c(=O)n2Cc2ccc(F)cc2)cc1C#N [Compound I-0227],910
8,CCc1oc2ccc(/N=c3\[nH]c(=O)n(C[C@H](O)CO)c(=O)n3Cc3ccc(Cl)cc3)cc2c1C [Compound I-1624],8
9,C/C=C\c1ccc(Cn2c(=O)n(C[C@H](C)C(=O)OC)c(=O)[nH]/c2=N\c2ccc(OC(C)C)cc2)cc1 [Compound I-1142],802
10,Cc1ccc(Cn2c(=O)n([C@@H](C)[C@@H](C)C(=O)O)c(=O)[nH]/c2=N\c2ccc(OCC3CC3)cc2)cc1 [Compound I-0972],38
11,CCc1oc2ccc(/N=c3\[nH]c(=O)n(CC(N)=O)c(=O)n3Cc3ccc(Cl)cc3)cc2c1C [Compound I-1656],7
12,COC(=O)Cn1c(=O)[nH]/c(=N\c2ccc(Oc3ccnc(O)c3)cc2)n(Cc2ccc(Cl)cc2)c1=O [Compound I-1903],4
13,COC(=O)CCn1c(=O)[nH]/c(=N\c2cc(C(=O)OC)n(C)c2)n(Cc2ccc(C)cc2)c1=O [Compound I-1836],787
14,CCc1oc2ccc(/N=c3\[nH]c(=O)n(CC(C)(C)C(=O)OC)c(=O)n3Cc3ccc(C)cc3)cc2c1C [Compound I-1575],9
15,CCc1nc2ccc(/N=c3\[nH]c(=O)n(CC4(C(=O)O)CC4)c(=O)n3Cc3ccc(C)cc3)cc2s1 [Compound I-1556],11
16,C[C@@H](C(=O)O)[C@H](C)n1c(=O)[nH]/c(=N\c2ccc3oc(-c4ccncc4)nc3c2)n(Cc2ccc(Cl)cc2)c1=O [Compound I-1816],300
17,COC(=O)[C@@H](C)Cn1c(=O)[nH]/c(=N\c2ccc(OC(C)C)cc2)n(Cc2ccc(I)cc2)c1=O [Compound I-1080],66

# Same assay, conditions: human P2X3 receptor, Test Example 1
row,Structure (SMILES),IC50 [nM]
1,CCn1c(=O)[nH]/c(=N\c2ccc(Sc3nc[nH]n3)cc2)n(Cc2ccc(Cl)cc2)c1=O [Compound I-2598],341
2,CCn1c(=O)[nH]/c(=N\c2ccc(Oc3cc(C(=O)OC)sn3)cc2)n(Cc2ccc(Cl)cc2)c1=O [Compound I-2247],3
3,COC(=O)[C@@H](C)Cn1c(=O)[nH]/c(=N\c2ccc(OCC(C)C)c(C)c2)n(Cc2ccc(C)cc2)c1=O [Compound I-0832],103
4,CC(=O)Nc1cc(Oc2ccc(/N=c3\[nH]c(=O)n(C)c(=O)n3Cc3ccc(Cl)cc3)cc2)ccn1 [Compound I-2431],18
5,O=c1[nH]/c(=N\c2ccc(Oc3noc(C4CC4)n3)cc2)n(Cc2ccc(Cl)cc2)c(=O)n1CC(CO)CO [Compound I-2595],27
6,O=c1[nH]/c(=N\c2ccc(Oc3nccs3)cc2)n(Cc2ccc(Cl)cc2)c(=O)n1C[C@@H](O)CO [Compound I-2506],14
7,CCn1c(=O)[nH]/c(=N\c2ccc(Oc3ccc(C(=O)O)nn3)cc2)n(Cc2ccc(C)cc2)c1=O [Compound I-2383],15
8,CCCOc1ccc(/N=c2\[nH]c(=O)n(CCCC(=O)OCC)c(=O)n2Cc2ccc(C)cc2)cc1Cl [Compound I-0861],19
9,CNC(=O)Cn1c(=O)[nH]/c(=N\c2ccc(Oc3ccon3)c(F)c2)n(Cc2ccc(Cl)cc2)c1=O [Compound I-2587],7
10,CCn1c(=O)[nH]/c(=N\c2cccc(Oc3nccs3)c2)n(Cc2ccc(Cl)cc2)c1=O [Compound I-2637],177
11,COC(=O)c1cncc(Oc2ccc(/N=c3\[nH]c(=O)n(C)c(=O)n3Cc3ccc(C)cc3)cc2)n1 [Compound I-2468],20
12,"CC(C)Oc1ccc(/N=c2\[nH]c(=S)n(C(C)C)c(=O)n2Cc2ccc(Cl)cc2)cc1 [Compound I-2254, 1-(4-chlorobenzyl)-3-isopropyl-6-(4-isopropoxyphenylimino)-4-thioxo-1,3,5-triazinane-2-one]",78
13,O=c1[nH]/c(=N\c2ccc(Oc3cnsn3)cc2)n(Cc2ccc(Cl)cc2)c(=O)n1C[C@H](O)CO [Compound I-2479],8
